According to ChEMBL document CHEMBL2331375, “Design, Synthesis, and Pharmacological Evaluation of Fluorescent and Biotinylated Antagonists of ρ1 GABAC Receptors” (ACS Med Chem Lett, 2013):
Values belong to the compound of their own block, whether it stands above or below them. Activity calls are given as the source filed them. The rule behind the calls is not given here.

Key:
[1] = biological target: T1, Gamma-aminobutyric acid receptor subunit rho-1 (Homo sapiens, UniProt P24046); test: Agonist activity at GABAC rho1 receptor (unknown origin)
T1 sequence (P24046 whole entry): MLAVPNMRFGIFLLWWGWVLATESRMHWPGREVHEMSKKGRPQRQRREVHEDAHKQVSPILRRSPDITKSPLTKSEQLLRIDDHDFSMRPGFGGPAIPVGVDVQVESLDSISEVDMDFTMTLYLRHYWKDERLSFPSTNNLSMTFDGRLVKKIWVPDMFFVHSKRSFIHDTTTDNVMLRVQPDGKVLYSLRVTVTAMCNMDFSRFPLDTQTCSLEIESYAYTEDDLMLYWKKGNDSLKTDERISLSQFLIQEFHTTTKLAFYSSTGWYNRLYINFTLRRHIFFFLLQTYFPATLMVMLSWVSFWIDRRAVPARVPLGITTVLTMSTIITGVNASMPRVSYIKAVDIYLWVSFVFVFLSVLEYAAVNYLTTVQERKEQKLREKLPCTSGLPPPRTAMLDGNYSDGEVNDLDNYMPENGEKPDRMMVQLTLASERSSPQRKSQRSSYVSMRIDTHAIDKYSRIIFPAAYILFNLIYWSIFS

[2] = biological target: GABA-A receptor; alpha-1/beta-2/gamma-2 (Homo sapiens) (UniProt P14867+P47870+P18507); test: Antagonist activity at human GABAA alpha1beta2gamma2L receptor expressed in Xenopus laevis oocytes assessed as inhibition of GABA-induced current at 300 uM by two electrode voltage clamp assay relative to control; type: cell-based; details: Oocyte
[3] = biological target: T1, Gamma-aminobutyric acid receptor subunit rho-1; test: Antagonist activity at human GABAC rho1 receptor expressed in Xenopus laevis oocytes assessed as inhibition of GABA-induced current at 600 uM by two electrode voltage clamp assay relative to control; type: cell-based; details: Oocyte
[4] = biological target: T1, Gamma-aminobutyric acid receptor subunit rho-1; test: Antagonist activity at human GABAC rho1 receptor expressed in Xenopus laevis oocytes assessed as inhibition of GABA-induced current by two electrode voltage clamp assay; type: cell-based, Oocyte
[5] = biological target: T1, Gamma-aminobutyric acid receptor subunit rho-1; test: Antagonist activity at human GABAC rho1 receptor expressed in Xenopus laevis oocytes assessed as inhibition of GABA-induced current at 300 uM by two electrode voltage clamp assay relative to control; type: cell-based; details: Oocyte
[6] = biological target: T1, Gamma-aminobutyric acid receptor subunit rho-1; test: Antagonist activity at human GABAC rho1 receptor expressed in Xenopus laevis oocytes assessed as inhibition of GABA-induced current preincubated for 5 mins by two electrode voltage clamp assay; type: cell-based, Oocyte
Homo sapiens = species: Homo sapiens; test: Selectivity for human GABAC rho1 receptor over human GABAA alpha1beta2gamma2L receptor
[7] = biological target: GABA-A receptor; agonist GABA site; test: Agonist activity at GABAA receptor (unknown origin); type: protein-complex assay, Homo sapiens
[8] = Agonist activity at GABAC receptor (unknown origin) expressed in Xenopus laevis oocytes; type: cell-based; details: Homo sapiens, Oocyte
[9] = biological target: T1, Gamma-aminobutyric acid receptor subunit rho-1; test: Partial agonist activity at GABAC rho1 receptor (unknown origin)

Compound: NC[C@@H]1C[C@@H]1C(=O)O
- EC50 [1]: 39.7 µM

Compound: CCCCP(=O)(O)C1=CC[C@H](N)C1
- inhibition [2]: inactive
- IC50 [4]: 9.76 µM
- inhibition [5]: 97%

Compound: CCCCP(=O)(O)C1=CC[C@H](NC(=O)CCCCCNC(=O)CCCC[C@@H]2SC[C@@H]3NC(=O)N[C@@H]32)C1
- inhibition [2]: 9%
- IC50 [4]: 148 µM
- IC50 [6]: 76.5 µM

Compound: CCCCP(=O)(O)C1=CC[C@H](NC(=O)CCCCCNc2ccc([N+](=O)[O-])c3nonc23)C1
- inhibition [2]: inactive
- IC50 [4]: 281 µM
- IC50 [6]: 193 µM

Compound: Cc1nc[nH]c1CC(=O)O
- EC50 [1]: 22 µM

Compound: CCCCP(=O)(O)C1=CC[C@H](NC(=O)CCCCCCCCCCNC(=O)c2ccccc2NC)C1
- inhibition [3]: 8%

Compound: CCCCP(=O)(O)C1=CC[C@H](NC(=O)CCCCCCCNC(=O)c2ccccc2NC)C1
- inhibition [3]: 24%

Compound: CCCCP(=O)(O)C1=CC[C@H](NC(=O)CCCCCNC(=O)CCC2=C3C(C)=CC(C)=[N+]3[B-](F)(F)n3c(C)cc(C)c32)C1
- Selectivity ratio (Homo sapiens): > 100
- inhibition [2]: inactive
- IC50 [4]: 103 µM
- IC50 [6]: 58.6 µM

Compound: NCc1cc(=O)[nH]o1 [MUSCIMOL]
- EC50 [7]: 27 µM
- EC50 [8]: 2 µM
- EC50 [9]: 2.3 µM

Compound: O=C(CCCC[C@@H]1SC[C@@H]2NC(=O)N[C@@H]21)NCCCCCC(=O)NCc1cc(O)no1
- EC50 [8]: 20 µM

Compound: CCCCP(=O)(O)C1=CC[C@H](NC(=O)CCCC[C@@H]2SC[C@@H]3NC(=O)N[C@@H]32)C1
- inhibition [5]: inactive

Compound: CCCCP(=O)(O)C1=CC[C@H](NC(=O)CNC(=O)c2ccccc2NC)C1
- inhibition [3]: 8%

Compound: CCCCP(=O)(O)C1=CC[C@@H](N)C1
- inhibition [2]: inactive
- inhibition [5]: 92%

Further lines, results first:

- inhibition [2]: inactive
- inhibition [3]: 62%
Compound: CCCCP(=O)(O)C1=CC[C@H](NC(=O)CCCCCNC(=O)c2ccccc2NC)C1

- inhibition [3]: 31%
Compound: CCCCP(=O)(O)C1=CC[C@H](NC(=O)CCCCNC(=O)c2ccccc2NC)C1

- inhibition [2]: inactive
- inhibition [3]: 56%
Compound: CCCCP(=O)(O)C1=CC[C@@H](NC(=O)CCCCCNC(=O)c2ccccc2NC)C1

- inhibition [3]: 23%
Compound: CCCCP(=O)(O)C1=CC[C@H](NC(=O)CCCNC(=O)c2ccccc2NC)C1

- inhibition [3]: 55%
Compound: CCCCP(=O)(O)C1=CC[C@H](NC(=O)CCCCCCNC(=O)c2ccccc2NC)C1
